Measurements as given in patent publication US7407775B2, “Method for identifying Listeria monocytogenes and culture medium” (Biomerieux S.A., priority 2000, dated 2008).

How the values were obtained:
Format in all cases: cell-based
[1] = test system: Listeria monocytogenes, Listeria innocua and Listeria ivanovii; assay: Experiment 4: comparison of Listeria strains with pairs of substrates; conditions: for results as saccharidase substrate paired with an esterase substrate: Experiment 4, semi-solid medium
Experimental: (§1) In Table 1 above, as in the following Tables, C represents the color of the colonies after incubation, I represents the intensity of the color, and the symbol “-” corresponds to the absence of color or intensity; finally, IT defines the incubation time. It should be noted that the intensity of the color is scored on an arbitrary scale but one which is consistent for all the biological specimens and media tested. This scale is valid for this experiment as well as all those that follow. It can be defined in the following way: • 0 corresponds to no activity, • 0.1 corresponds to a trace of color, • 0.5 corresponds to very pale coloration, • 1 corresponds to clear but low-intensity coloration, • 1.5 corresponds to a degree of coloration intermediate between scores 1 and 2, • 2 corresponds to clear coloration of moderate intensity, • 2.5 corresponds to a degree of coloration intermediate between scores 2 and 3, • 3 corresponds to intense coloration, • 3.5 corresponds to a degree of coloration intermediate between scores 3 and 4, • 4 corresponds to very intense coloration.
A stock solution of each esterase substrate at a concentration of 40 g/l was made up in a mixture of 40% Dimethylsulfoxide and 60% Tween 20. And a stock solution of each saccharidase substrate was made up in Dimethylsulfoxide. An appropriate volume of the stock solution of the esterase substrate corresponding to each of the pairs described above was added to one of eight Columbia-type media while cooling to obtain a final substrate concentration of 250 mg/l. In parallel, an appropriate volume of the stock solution of the saccharidase substrate corresponding to each of the pairs described above was added to each of the eight media in order to obtain a final concentration of between 100 and 200 mg/l (depending on the substrate). These dishes were divided into three areas and then each area was inoculated with a suspension (density=0.5 McFarland) of microorganisms taken from either the Applicant's own collection or the ATCC. The dishes were incubated for 48 hours at 37° C. The colonies which grew were examined by eye after 24 and 48 hours of incubation.
Both the color and the intensity of the color of the colonies were recorded.

[2] = test system: Listeria welshimeri 023; assay: Experiment 3: detecting an esterase activity in liquid medium (API-type strips); set-up: key: —: the symbol “-” corresponds to the absence of color or intensity; 0 corresponds to no activity; 0.1 corresponds to a trace of color; 0.5 corresponds to very pale coloration; 1 corresponds to clear but low-intensity coloration; 1.5 corresponds to a degree of coloration intermediate between scores 1 and 2; 2 corresponds to clear coloration of moderate intensity; 2.5 corresponds to a degree of coloration intermediate between scores 2 and 3; 3 corresponds to intense coloration; 3.5 corresponds to a degree of coloration intermediate between scores 3 and 4; 4 corresponds to very intense coloration; conditions: 37° C.
Experimental: as §1
(§2) These substrates were lyophilized in the wells of API-type strips (Registered Trademark). Before use, the substrates contained in the wells were resuspended in an agar-free Columbia-type inoculation medium. These wells were then inoculated with a suspension (density=2 McFarland) of microorganisms taken from either the Applicant's own collection or the ATCC. The strips were incubated for 8 hours at 37° C. The colonies which grew were examined by eye after 4, 6 and 8 hours of incubation.
(§3) The intensity of the color of the colonies was recorded.

[3] = test system: Listeria grayi ATCC 19120; assay: as above; set-up: key: —: the symbol “-” corresponds to the absence of color or intensity; 0 corresponds to no activity; 0.1 corresponds to a trace of color; 0.5 corresponds to very pale coloration; 1 corresponds to clear but low-intensity coloration; 1.5 corresponds to a degree of coloration intermediate between scores 1 and 2; 2 corresponds to clear coloration of moderate intensity; 2.5 corresponds to a degree of coloration intermediate between scores 2 and 3; 3 corresponds to intense coloration; 3.5 corresponds to a degree of coloration intermediate between scores 3 and 4; 4 corresponds to very intense coloration; conditions: 37° C.
Experimental: as §1, §2, §3

[4] = test system: Listeria innocua 171; assay: as above; set-up: key: —: the symbol “-” corresponds to the absence of color or intensity; 0 corresponds to no activity; 0.1 corresponds to a trace of color; 0.5 corresponds to very pale coloration; 1 corresponds to clear but low-intensity coloration; 1.5 corresponds to a degree of coloration intermediate between scores 1 and 2; 2 corresponds to clear coloration of moderate intensity; 2.5 corresponds to a degree of coloration intermediate between scores 2 and 3; 3 corresponds to intense coloration; 3.5 corresponds to a degree of coloration intermediate between scores 3 and 4; 4 corresponds to very intense coloration; conditions: 37° C.
Experimental: as §1, §2, §3

[5] = test system: Listeria seeligeri 011; assay: as above; set-up: key: —: the symbol “-” corresponds to the absence of color or intensity; 0 corresponds to no activity; 0.1 corresponds to a trace of color; 0.5 corresponds to very pale coloration; 1 corresponds to clear but low-intensity coloration; 1.5 corresponds to a degree of coloration intermediate between scores 1 and 2; 2 corresponds to clear coloration of moderate intensity; 2.5 corresponds to a degree of coloration intermediate between scores 2 and 3; 3 corresponds to intense coloration; 3.5 corresponds to a degree of coloration intermediate between scores 3 and 4; 4 corresponds to very intense coloration; conditions: 37° C.
Experimental: as §1, §2, §3

[6] = test system: Listeria monocytogenes 092; assay: as above; set-up: key: —: the symbol “-” corresponds to the absence of color or intensity; 0 corresponds to no activity; 0.1 corresponds to a trace of color; 0.5 corresponds to very pale coloration; 1 corresponds to clear but low-intensity coloration; 1.5 corresponds to a degree of coloration intermediate between scores 1 and 2; 2 corresponds to clear coloration of moderate intensity; 2.5 corresponds to a degree of coloration intermediate between scores 2 and 3; 3 corresponds to intense coloration; 3.5 corresponds to a degree of coloration intermediate between scores 3 and 4; 4 corresponds to very intense coloration; conditions: 37° C.
Experimental: as §1, §2, §3

[7] = test system: Listeria innocua 166; assay: as above; set-up: key: —: the symbol “-” corresponds to the absence of color or intensity; 0 corresponds to no activity; 0.1 corresponds to a trace of color; 0.5 corresponds to very pale coloration; 1 corresponds to clear but low-intensity coloration; 1.5 corresponds to a degree of coloration intermediate between scores 1 and 2; 2 corresponds to clear coloration of moderate intensity; 2.5 corresponds to a degree of coloration intermediate between scores 2 and 3; 3 corresponds to intense coloration; 3.5 corresponds to a degree of coloration intermediate between scores 3 and 4; 4 corresponds to very intense coloration; conditions: 37° C.
Experimental: as §1, §2, §3

[8] = test system: Listeria monocytogenes ATCC 19115; assay: as above; set-up: key: —: the symbol “-” corresponds to the absence of color or intensity; 0 corresponds to no activity; 0.1 corresponds to a trace of color; 0.5 corresponds to very pale coloration; 1 corresponds to clear but low-intensity coloration; 1.5 corresponds to a degree of coloration intermediate between scores 1 and 2; 2 corresponds to clear coloration of moderate intensity; 2.5 corresponds to a degree of coloration intermediate between scores 2 and 3; 3 corresponds to intense coloration; 3.5 corresponds to a degree of coloration intermediate between scores 3 and 4; 4 corresponds to very intense coloration; conditions: 37° C.
Experimental: as §1, §2, §3

[9] = test system: Listeria ivanovii 018; assay: as above; set-up: key: —: the symbol “-” corresponds to the absence of color or intensity; 0 corresponds to no activity; 0.1 corresponds to a trace of color; 0.5 corresponds to very pale coloration; 1 corresponds to clear but low-intensity coloration; 1.5 corresponds to a degree of coloration intermediate between scores 1 and 2; 2 corresponds to clear coloration of moderate intensity; 2.5 corresponds to a degree of coloration intermediate between scores 2 and 3; 3 corresponds to intense coloration; 3.5 corresponds to a degree of coloration intermediate between scores 3 and 4; 4 corresponds to very intense coloration; conditions: 37° C.
Experimental: as §1, §2, §3

[10] = test system: Listeria species; assay: Experiment 3: differentiation of Listeria species in liquid medium
Experimental: as §1
These substrates were lyophilized in the wells of API-type strips (Registered Trademark). Before use, the substrates contained in the wells were resuspended in an agar-free Columbia-type inoculation medium. […]
as §3

| results as saccharidase substrate paired with an esterase substrate [1] | Compound | I (intensity of the color) ([2]; IT 4 h) | I (intensity of the color) ([2]; IT 6 h) | I (intensity of the color) ([2]; IT 8 h) | I (intensity of the color) ([3]; IT 4 h) | I (intensity of the color) ([3]; IT 6 h) | I (intensity of the color) ([3]; IT 8 h) | I (intensity of the color) ([4]; IT 4 h) | I (intensity of the color) ([4]; IT 6 h) | I (intensity of the color) ([4]; IT 8 h) | I (intensity of the color) ([5]; IT 4 h) | I (intensity of the color) ([5]; IT 6 h) | I (intensity of the color) ([5]; IT 8 h) | I (intensity of the color) ([6]; IT 4 h) | I (intensity of the color) ([6]; IT 6 h) | I (intensity of the color) ([6]; IT 8 h) | I (intensity of the color) ([7]; IT 4 h) | I (intensity of the color) ([7]; IT 6 h) | I (intensity of the color) ([7]; IT 8 h) | I (intensity of the color) ([8]; IT 4 h) | other results |
| --- | --- | --- | --- | --- | --- | --- | --- | --- | --- | --- | --- | --- | --- | --- | --- | --- | --- | --- | --- | --- | --- |
| – | CCCCCCCCC(=O)Oc1c[nH]c2ccc(Br)c(Cl)c12 [5-Bromo-4-chloro-3-indolyl nonanoate] | – | – | – | – | – | – | – | – | – | – | – | – | – | – | – | – | – | – | – | contrast ([1]; together with a saccharidase substrate based on 6-Chloro-3-indolyl, whatever the target activity): best contrast |
| best results | CC(=O)N[C@H]1[C@H](Oc2c[nH]c3cc(Cl)ccc23)O[C@H](CO)[C@@H](O)[C@@H]1O [6-Chloro-3-indolyl-N-acetyl-β-D-glucosaminide] | – | – | – | – | – | – | – | – | – | – | – | – | – | – | – | – | – | – | – | – |
| best results | OC[C@H]1O[C@H](Oc2c[nH]c3cc(Cl)ccc23)[C@@H](O)[C@@H](O)[C@@H]1O [6-Chloro-3-indolyl-α-D-mannoside] | – | – | – | – | – | – | – | – | – | – | – | – | – | – | – | – | – | – | – | – |
| best results | OC[C@H]1O[C@@H](Oc2c[nH]c3cc(Cl)ccc23)[C@H](O)[C@@H](O)[C@@H]1O [6-Chloro-3-indolyl-β-D-glucoside] | – | – | – | – | – | – | – | – | – | – | – | – | – | – | – | – | – | – | – | – |
| – | CC(=O)Oc1c[nH]c2ccc(Br)c(Cl)c12 [X-C2, 5-Bromo-4-chloro-3-indolyl acetate] | 3 | 4 | 4 | 2 | 2 | 3 | 4 | 4 | 4 | 3 | 3 | 4 | 3 | 4 | 4 | 3 | 4 | 4 | 3 | I (intensity of the color) ([8]; IT 6 h): 4; I (intensity of the color) ([8]; IT 8 h): 4; I (intensity of the color) ([9]; IT 4 h): 3; I (intensity of the color) ([9]; IT 6 h): 3; I (intensity of the color) ([9]; IT 8 h): 4 |
| – | CCCC(=O)Oc1c[nH]c2ccc(Br)c(Cl)c12 [X-C4, 5-Bromo-4-chloro-3-indolyl butyrate] | 0.5 | 1 | 2 | 0.5 | 1 | 2 | 0.5 | 1 | 2 | 0.5 | 1 | 2 | 2 | 2 | 3 | 0.5 | 1 | 2 | 1 | differentiation between L. monocytogenes and other species belonging to the same genus [10]: gave a contrast in color; I (intensity of the color) ([8]; IT 6 h): 2; I (intensity of the color) ([8]; IT 8 h): 3; I (intensity of the color) ([9]; IT 4 h): 0.5; I (intensity of the color) ([9]; IT 6 h): 1; I (intensity of the color) ([9]; IT 8 h): 2 |
| – | CC(=O)Oc1c[nH]c2ccccc12 [Y-C2, 3-Indolyl acetate] | 3 | 4 | 4 | 3 | 4 | 4 | 3 | 3 | 4 | 3 | 3 | 4 | 4 | 4 | 4 | 3 | 3 | 4 | 3 | I (intensity of the color) ([8]; IT 6 h): 4; I (intensity of the color) ([8]; IT 8 h): 4; I (intensity of the color) ([9]; IT 4 h): 3; I (intensity of the color) ([9]; IT 6 h): 4; I (intensity of the color) ([9]; IT 8 h): 4 |
